We go through 8 compounds from ChEMBL document CHEMBL3046689, “Volatile aldehydes are promising broad-spectrum postharvest insecticides” (J Agric Food Chem, 2000).

≈ marks a conversion by molar mass, not a printed value. Calls of active or inactive are those of the source. No cut-off for these calls is given here.

The subject of data set [1] is Tetranychus urticae. The experiment in a line: Insecticidal activity against Tetranychus urticae (two-spotted spider mite). In kind it is functional, organism-based.
The subject of data set [2] is Bemisia. The experiment in a line: Insecticidal activity against Bemisia sp. In kind it is functional, organism-based.
Data set [3] concerns Lactuca sativa. The experiment in a line: Phytotoxicity in naked Lactuca sativa (lettuce) assessed as residual aldehyde odor after compound application through two-tier reduced pressure fumigation at 30 mmHg for 0.5 hr and then 760 mmHg for 1.5 hr at 23 +/- 1 degC after 2 hr. In kind it is organism-based. The following applies: in vivo.
Data set [4] deals with Lactuca sativa. The experiment in a line: Phytotoxicity in naked Lactuca sativa (lettuce) assessed as change in visual quality after compound application through two-tier reduced pressure fumigation at 30 mmHg for 0.5 hr and then 760 mmHg for 1.5 hr at 23 +/- 1 degC after 2 hr. The following applies: in vivo. The data set is classed as organism-based.
Data set [5] relates to Myzus persicae. The experiment in a line: Insecticidal activity against Myzus persicae (green peach aphid) placed under third leaf of naked Iceburg lettuce heads and after compound application for 2 hr through two-tier reduced pressure fumigation at 30 mmHg for 0.5 hr and then 760 mmHg for 1.5 hr at 23 +/- 1 degC measured after 24 hr. The note with it: for LC50: Myzus persicae, read-out: LD50 (the source's name). The data set is classed as functional.

In data set [6] the test system is Pseudococcus affinis. Nature of the data set: Insecticidal activity against Pseudococcus affinis. In kind it is functional, organism-based.
The test system of data set [7] is Brevicoryne brassicae. The experiment in a line: Insecticidal activity against Brevicoryne brassicae (cabbage aphids). The data set is classed as functional, organism-based.
Data set [8] concerns Frankliniella occidentalis. The experiment in a line: Insecticidal activity against Frankliniella occidentalis (western flower thrips). In kind it is functional, organism-based.
Data set [9] concerns Pseudococcus viburni. The experiment in a line: Insecticidal activity against Pseudococcus viburni. The data set is classed as functional, organism-based.
Data set [10] relates to Myzus persicae. Nature of the data set: Insecticidal activity against Myzus persicae (green peach aphid) infested naked lettuce applied for 1 hr through two-tier reduced pressure fumigation at 30 mmHg for 0.5 hr and then 760 mmHg for 1.5 hr at 23 +/- 1 degC measured 24 hr. In kind it is functional, organism-based.
Data set [11] has as its system Vitis vinifera. Nature of the data set: (§1) Phytotoxicity in Vitis vinifera assessed as induction of olfactory damage after compound application for 1 hr through two-tier reduced pressure fumigation at 30 mmHg for 0.5 hr and then 760 mmHg for 1.5 hr at 23 +/- 1 degC. The following applies: in vivo. In kind it is organism-based.
Data set [12] relates to Malus domestica. The experiment in a line: Phytotoxicity in Malus x domestica (apple) assessed as induction of olfactory damage after compound application for 1 hr through two-tier reduced pressure fumigation at 30 mmHg for 0.5 hr and then 760 mmHg for 1.5 hr at 23 +/- 1 degC. In kind it is organism-based. The following applies: in vivo.
Data set [13] has as its system Oryza sativa. The experiment in a line: Phytotoxicity in Oryza sativa (rice) assessed as induction of visual damage after compound application for 1 hr through two-tier reduced pressure fumigation at 30 mmHg for 0.5 hr and then 760 mmHg for 1.5 hr at 23 +/- 1 degC. The data set is classed as organism-based. The following applies: in vivo.
The test system of data set [14] is Lactuca sativa. Nature of the data set: Phytotoxicity in naked Lactuca sativa (lettuce) after compound application for 1 hr through two-tier reduced pressure fumigation at 30 mmHg for 0.5 hr and then 760 mmHg for 1.5 hr at 23 +/- 1 degC. The data set is classed as organism-based. The note with it: in vivo.
Data set [15] relates to Persea americana. Nature of the data set: Phytotoxicity in Persea americana (avocado) assessed as induction of visual damage after compound application for 1 hr through two-tier reduced pressure fumigation at 30 mmHg for 0.5 hr and then 760 mmHg for 1.5 hr at 23 +/- 1 degC. The following applies: in vivo. The data set is classed as organism-based.
The test system of data set [16] is Lactuca sativa. The experiment in a line: Phytotoxicity in naked Lactuca sativa (lettuce) assessed as induction of olfactory damage after compound application for 1 hr through two-tier reduced pressure fumigation at 30 mmHg for 0.5 hr and then 760 mmHg for 1.5 hr at 23 +/- 1 degC. The data set is classed as organism-based. The following applies: in vivo.
Data set [17] has as its system Citrus x paradisi. The experiment in a line: Phytotoxicity in Citrus x paradisi (grape fruit) assessed as induction of visual damage after compound application for 1 hr through two-tier reduced pressure fumigation at 30 mmHg for 0.5 hr and then 760 mmHg for 1.5 hr at 23 +/- 1 degC. The following applies: in vivo. The data set is classed as organism-based.
In data set [18] the test system is Brassica oleracea var. capitata. Nature of the data set: Phytotoxicity in Brassica oleracea var. capitata (cabbage) after compound application for 1 hr through two-tier reduced pressure fumigation at 30 mmHg for 0.5 hr and then 760 mmHg for 1.5 hr at 23 +/- 1 degC. The data set is classed as organism-based. The following applies: in vivo.
In data set [19] the test system is Citrus sinensis. Nature of the data set: Phytotoxicity in Citrus sinensis (orange) assessed as induction of olfactory damage after compound application for 1 hr through two-tier reduced pressure fumigation at 30 mmHg for 0.5 hr and then 760 mmHg for 1.5 hr at 23 +/- 1 degC. In kind it is organism-based. The following applies: in vivo.
Data set [20] concerns Lactuca sativa. Nature of the data set: Phytotoxicity in wrapped Lactuca sativa (lettuce) assessed as induction of visual damage after compound application for 1 hr through two-tier reduced pressure fumigation at 30 mmHg for 0.5 hr and then 760 mmHg for 1.5 hr at 23 +/- 1 degC. The note with it: in vivo. In kind it is organism-based.
For data set [21], the system named is Vitis vinifera. The data set is described as §1. In kind it is organism-based. The note with it: in vivo. The source holds these as a separate data set.
Data set [22] relates to Brassica oleracea var. italica. The experiment in a line: Phytotoxicity in Brassica oleracea var. italica assessed as induction of visual damage after compound application for 1 hr through two-tier reduced pressure fumigation at 30 mmHg for 0.5 hr and then 760 mmHg for 1.5 hr at 23 +/- 1 degC. The data set is classed as organism-based. The note with it: in vivo.
Data set [23] concerns Phaseolus vulgaris. The experiment in a line: PhytoToxicity in Phaseolus vulgaris (beans) assessed as induction of visual damage after compound application for 1 hr through two-tier reduced pressure fumigation at 30 mmHg for 0.5 hr and then 760 mmHg for 1.5 hr at 23 +/- 1 degC. In kind it is organism-based. The following applies: in vivo, other.
The test system of data set [24] is Citrus limon. The experiment in a line: Phytotoxicity in Citrus limon (lemon) assessed as induction of olfactory damage after compound application for 1 hr through two-tier reduced pressure fumigation at 30 mmHg for 0.5 hr and then 760 mmHg for 1.5 hr at 23 +/- 1 degC. The note with it: citrus x limon, in vivo. The data set is classed as organism-based.
For data set [25], the system named is Myzus persicae. Nature of the data set: Insecticidal activity against Myzus persicae (green peach aphid) infested wrapped lettuce applied for 1 hr through two-tier reduced pressure fumigation at 30 mmHg for 0.5 hr and then 760 mmHg for 1.5 hr at 23 +/- 1 degC measured 24 hr. The data set is classed as functional, organism-based.
Data set [26] deals with Brassica oleracea var. capitata. Nature of the data set: Phytotoxicity in Brassica oleracea var. capitata (cabbage) assessed as induction of visual damage after compound application for 1 hr through two-tier reduced pressure fumigation at 30 mmHg for 0.5 hr and then 760 mmHg for 1.5 hr at 23 +/- 1 degC. In kind it is organism-based. The note with it: in vivo.
For data set [27], the system named is Brassica oleracea var. italica. The experiment in a line: Phytotoxicity in Brassica oleracea var. italica after compound application for 1 hr through two-tier reduced pressure fumigation at 30 mmHg for 0.5 hr and then 760 mmHg for 1.5 hr at 23 +/- 1 degC. The data set is classed as organism-based. The note with it: in vivo.
Data set [28] has as its system Myzus persicae. The experiment in a line: Insecticidal activity against Myzus persicae (green peach aphid) applied through two-tier reduced pressure fumigation at 30 mmHg for 0.5 hr and then 760 mmHg for 1.5 hr at 23 +/- 1 degC. The data set is classed as functional.

As to `CCC(C)C=O` (centres undefined) [2-METHYLBUTANAL], the outcome in data set [1] and in data set [7] was inactive. Further, the outcome in [2], in data set [6], in data set [8] and in data set [9] was Active. The Activity entry in data set [3] and in [4] was “Toxic” each time. In addition, the LD90 in data set [5] is 184.4 mg/L. The LC50 in data set [5] turned out to be 138 µg/mL (≈ 1610 µM).
For the compound `CCC/C=C/C=O`, the outcome in data set [1] and in data set [7] was inactive. Moreover, the result in data set [2], in data set [6], in [8] and in data set [9] was Active. Moreover, the Activity entry in [3] and in data set [4] was “Toxic” in each case. The same compound came in with an LD90 in [5] of 54.4 mg/L. In addition, in data set [5], the LC50 worked out at 24.3 µg/mL (≈ 248 µM).
As to `CC/C=C/C=O` [PENTENAL], the outcome in data set [1] and in [7] was inactive. Moreover, the outcome in data set [10], in [2], in data set [6], in data set [8], in data set [9] and in data set [25] was Active. Moreover, the Activity result in data set [11] was “Non-toxic”; in data set [12] it was “Non-toxic”; in data set [13], “Toxic”; in data set [3], “Toxic”; in [4], “Toxic”; in data set [14], “Toxic”. Besides, the Activity entry is “Toxic” in [15]; “Toxic” in [16]; “Toxic” in data set [17]; “Toxic” in [18]; “Non-toxic” in [19]; “Toxic” in [20]. For the same compound, the Activity result in [21] is listed as “Non-toxic”; in data set [22], “Toxic”; in data set [23] it was “Toxic”; in data set [24] it was “Non-toxic”; in data set [26], “Toxic”; in data set [27], “Toxic”. Also, the CTP in data set [5] amounted to 106 mg/L.hr. Besides, the LD90 in data set [5] was 25.8 mg/L. The LC50 in data set [5] was found to be 13.1 µg/mL (≈ 156 µM).
Regarding `CC/C=C(\C)C=O` [2-methyl-(E)-2-pentenal], the outcome in data set [1] and in data set [7] was inactive. The outcome in data set [2], in [6], in data set [8] and in data set [9] was Active. For the same compound, the Activity result in [3] and in data set [4] was “Toxic” throughout. The compound further returned an LD90 in [5] of 85.8 mg/L. Also, the LC50 in data set [5] came out at 33.5 µg/mL (≈ 341 µM).
`CCCC(C)C=O` (centres undefined) [2-METHYLPENTANAL]: the result in data set [1] and in [7] was inactive. In addition, the outcome in data set [2], in data set [6], in data set [8] and in data set [9] was Active. Also, the Activity entry in data set [3] and in data set [4] was “Toxic” in each case. Moreover, the LD90 in data set [5] came to 54.2 mg/L. For the same compound, the LC50 in data set [5] amounted to 39.9 µg/mL (≈ 398 µM).
On to `CC(C)C=O` [ISOBUTYRALDEHYDE], for which the result in data set [1] and in [7] was inactive. Besides, the outcome in [2], in data set [6], in data set [8] and in data set [9] was Active. For the same compound, the Activity entry in data set [3] and in data set [4] was “Toxic” each time. The compound also had a CTP in [28] of 9.2 mg/L.hr. The compound also displayed an LD90 in data set [5] of 224.1 mg/L.
As for `CCCCC=O` [PENTANAL], the outcome in [1] and in data set [7] was inactive. Also, the outcome in data set [2], in data set [6], in [8] and in data set [9] was Active. Moreover, the Activity result in [3] and in data set [4] was “Toxic” in each case. The LD90 in [5] came to 115.7 mg/L. Besides, in data set [5], the LC50 amounted to 71.4 µg/mL (≈ 829 µM).
In the case of `CC(C)=CC=O` [3-METHYL-(E)-2-BUTENAL], the outcome in data set [1] and in data set [7] was inactive. Besides, the outcome in [2], in [6], in data set [8] and in [9] was Active. The Activity result in [3] and in data set [4] was “Toxic” each time. This compound also yielded an LD90 in data set [5] of 139.1 mg/L. The LC50 in [5] is 73.9 µg/mL (≈ 879 µM).
